In US5910575A, “Immunoassay and monoclonal antibodies for urinary cortisol” (Immunotech, priority 1995, dated 1999):

Key:
[1] = system: anti-cortisol monoclonal antibody Immu 473 (IMMU-473, CNCM I-1532), obtained against the immunogen cortisol-3-CMO (syn)-BSA; experiment: Displacement of the cortisol-3-CMO (anti)-[125I] iodohistamine tracer from the monoclonal antibody (liquid phase radioimmunoassay); format: binding, mouse
Procedure: (§1) Selection is carried out by a liquid phase radioimmunoassay technique starting with the culture supernatant. The supernatants possibly containing anti-cortisol antibodies are incubated with a solution of radioactive cortisol (tritiated cortisol or cortisol derivative labelled with radioactive iodine: cortisol-3-CMO (anti)-[^125 I] iodohistamine). If anti-cortisol antibodies are present, they will bind the radioactive steroid. After incubation with charcoal-dextran and centrifugation to remove the free radioactivity and all the small molecules not fixed to the antibodies, a sample of the supernatant (bound fraction) is removed and counted.
(§2) The affinities of the monoclonal antibodies are measured by displacement of the cortisol-3-CMO (anti)-[^125 I] iodohistamine tracer with the two labelling precursors: cortisol-3-CMO (anti)-histamine and cortisol-3-CMO (syn)-histamine. The affinity is estimated (in the form of the IC50 value) according to the concentration displacing half of the tracer, since the tracer is present in a small quantity compared with the other constituents.

[2] = system: anti-cortisol monoclonal antibody Immu 482, obtained against the immunogen cortisol-3-CMO (syn)-BSA; experiment: as above; format: binding, mouse
Procedure: as §1, §2

[3] = IC50 of cortisol-3-CMO (anti)-histamine divided by IC50 of cortisol-3-CMO (syn)-histamine
[4] = tracer cortisol-3-CMO (anti)-[125I] iodohistamine, concentration displacing half of the tracer

C[C@]12CC/C(=N/OCC(=O)NCCc3c[nH]cn3)C=C1CC[C@@H]1[C@@H]2[C@@H](O)C[C@@]2(C)[C@H]1CC[C@]2(O)C(=O)CO [Cortisol-3-CMO (syn)-histamine, cortisol-3-carboxymethyloxime (syn)-histamine]
Ratio IC50 anti/IC50 syn [1, 3]: 2.73 | Displacement of the tracer by Cortisol-3-CMO (syn)-histamine IC50 [1, 4]: 0.182 ng/mL | Ratio IC50 anti/IC50 syn [2, 3]: 2.66 | Displacement of the tracer by Cortisol-3-CMO (syn)-histamine IC50 [2, 4]: 0.176 ng/mL

C[C@]12CC/C(=N\OCC(=O)NCCc3c[nH]cn3)C=C1CC[C@@H]1[C@@H]2[C@@H](O)C[C@@]2(C)[C@H]1CC[C@]2(O)C(=O)CO [Cortisol-3-CMO (anti)-histamine, cortisol-3-carboxymethyloxime (anti)-histamine]
Displacement of the tracer by Cortisol-3-CMO (anti)-histamine IC50 [1, 4]: 0.496 ng/mL | Displacement of the tracer by Cortisol-3-CMO (anti)-histamine IC50 [2, 4]: 0.468 ng/mL
